From PMC9722314, “Solubility Enhancement of a Poorly Water-Soluble Drug Using Hydrotropy and Mixed Hydrotropy-Based Solid Dispersion Techniques” (Advances in Pharmacological and Pharmaceutical Sciences, 2022)
Where “and” joins values, the source holds several entries; their conditions need not be identical. Equal entries are not always repeated.

Experiments:
[1] = Equilibrium solubility of rosuvastatin calcium in single hydrotropic agent solutions; assay type: physicochemical; conditions: for solubility thermodynamic at 24 h: aqueous hydrotropic agent solution, 37 °C, aqueous with cosolvent or surfactant or cyclodextrin, thermodynamic from solid
Experimental: At first, equilibrium solubility investigations were conducted with a variety of hydrotropic agents. […] In a 10 ml vial, 5 ml of a specific hydrotropic agent solution was accurately measured, and an excess of rosuvastatin calcium was added and physically agitated for 30 minutes until a saturated solution was generated. To achieve equilibrium solubility, the vial was shaken on a mechanical isothermal bath shaker at 37 ± 0.5°C for 24 hours, and the solution was allowed to equilibrate for another 24 hours. The resulting solution was filtered with a grade of 0.45 μm syringe filter. A portion of the sample was diluted with distilled water and examined at 242 nm using a UV-visibledouble-beam spectrophotometer against the respective solvent as a blank. The equilibrium solubility study was conducted in triplicate. The following formula was used for the calculation of solubility enhancement ratios:(1) Enhancement ratio=Solubility of drug in hydrotropic solution/Solubility of drug in water. Equation (1) is used for the calculation of the solubility enhancement ratio.

[2] = Equilibrium solubility of rosuvastatin calcium in mixed hydrotropic solutions; assay type: physicochemical; conditions: total 40%; for solubility at 24 h: mixed hydrotropic agent solution in distilled water; for solubility at 24 h / solubility: 37 °C, aqueous with cosolvent or surfactant or cyclodextrin, thermodynamic from solid; for solubility: mixed hydrotropic solution in distilled water
Experimental: In order to create a clear solution, two to three hydrotropic agents were mixed and dissolved in distilled water. Next, an excessive amount of calcium rosuvastatin was added, and the mixture was shaken until no more rosuvastatin was dissolved. The solutions are mechanically shaken on a mechanical isothermal bath shaker at 37 ± 0.5°C for 24 hours, followed by another 24 hours of equilibration. A grade of 0.45 μm syringe filter was used to filter the resultant solution. Using a UV-visibledouble-beam spectrophotometer, a portion of the material was diluted with distilled water and analyzed at 242 nm. The equilibrium solubility studies were conducted in triplicate. To obtain optimal solubility of rosuvastatin calcium in water, a ratio of three hydrotropic agents was adjusted.

[3] = Saturated solubility study in distilled water (pure drug, solid dispersions, physical mixture); assay type: physicochemical; conditions: 37 °C, thermodynamic from solid, 37 ± 0.5°C, 24 h shaking + 24 h equilibration
Experimental: To assess the solubility of pure rosuvastatin calcium, produced solid dispersions, and physical mixtures in distilled water, saturation solubility tests were performed. The saturation solubility tests were performed in triplicate according to Higuchi and Connors' technique. The excess of solid dispersions and physical mixtures were added to vials containing 10 ml of distilled water. The vials were shaken for 24 hours on a mechanical isothermal bath shaker at 37 ± 0.5°C and then left alone for another 24 hours to equilibrate. A syringe filter with a grade of 0.45 μm was used to filter the drug-containing solution. An aliquot of the filtrate was suitably diluted with the corresponding reagent, and the dilution was analyzed on a UV-visibledouble-beam spectrophotometer [18].

[4] = In vitro dissolution rate study, USP apparatus I (basket); assay type: physicochemical; conditions: within 45 min; 900 ml 0.05 M citrate buffer pH 6.6, 50 rpm, 37°C, 10 mg drug; listed as pure drug
Experimental: In vitro dissolution of rosuvastatin calcium solid dispersions, physical mixtures, and the pure drug was investigated using a basket stirrer in a USP dissolution apparatus (Industrial Lab) (USP apparatus I method). The dissolution medium was 900 ml of 0.05 M citrate buffer at pH 6.6, which is recommended by the US Food and Drug Administration for dissolution studies with rosuvastatin calcium. The rotation speed was 50 rpm, and the temperature was kept constant at 37 ± 0.5°C during the experiment. Each test employed solid dispersions containing 10 mg of rosuvastatin calcium. At known intervals of time of 5, 10, 15, 20, 25, 30, and 45 minutes, 5 ml of the dissolution medium sample was removed and refilled with the same quantity of medium to maintain a consistent volume throughout the experiment. The withdrawn material was filtered using a 0.45 μm syringe filter. After dilution with a 0.05 M citrate buffer solution, the samples were spectrophotometrically analyzed by detecting the absorbance at 241 nm. […] The dissolution studies of each formulation were conducted in triplicate.

[5] = due to limited water solubility; cited from earlier work
[6] = design: method as in earlier work; conditions: sodium salicylate (2.0 M); ref 18 (Nainwal et al.); cited from earlier work
[7] = cited from earlier work

CC(C)c1nc(N(C)S(C)(=O)=O)nc(-c2ccc(F)cc2)c1/C=C/[C@@H](O)C[C@@H](O)CC(=O)O [rosuvastatin calcium, Rosuvastatin calcium]
solubility thermodynamic at 24 h ([1]; citric acid 10% w/v aqueous solution): 0.45 ± 0.003 mg/mL | solubility thermodynamic at 24 h ([1]; citric acid 20% w/v aqueous solution): 0.75 ± 0.05 mg/mL | solubility thermodynamic at 24 h ([1]; citric acid 30% w/v aqueous solution): 0.78 ± 0.1 mg/mL | solubility thermodynamic at 24 h ([1]; citric acid 40% w/v aqueous solution): 0.93 ± 0.17 mg/mL | solubility thermodynamic at 24 h ([1]; mannitol 10% w/v aqueous solution): 0.49 ± 0.13 mg/mL | solubility thermodynamic at 24 h ([1]; mannitol 20% w/v aqueous solution): 0.599 ± 0.09 mg/mL | solubility thermodynamic at 24 h ([1]; mannitol 30% w/v aqueous solution): 0.66 ± 0.1 mg/mL | solubility thermodynamic at 24 h ([1]; mannitol 40% w/v aqueous solution): 0.89 ± 0.028 mg/mL | solubility thermodynamic at 24 h ([1]; sodium benzoate 10% w/v aqueous solution): 22.9 ± 1.46 mg/mL | solubility thermodynamic at 24 h ([1]; sodium benzoate 20% w/v aqueous solution): 39 ± 4.53 mg/mL | solubility thermodynamic at 24 h ([1]; sodium benzoate 30% w/v aqueous solution): 103 ± 14.1 mg/mL | solubility thermodynamic at 24 h ([1]; sodium benzoate 40% w/v aqueous solution): 119 ± 13.8 mg/mL | solubility thermodynamic at 24 h ([1]; sodium salicylate 10% w/v aqueous solution): 27 ± 1.04 mg/mL | solubility thermodynamic at 24 h ([1]; sodium salicylate 20% w/v aqueous solution): 49.9 ± 2.58 mg/mL | solubility thermodynamic at 24 h ([1]; sodium salicylate 30% w/v aqueous solution): 97.3 ± 4.13 mg/mL | solubility thermodynamic at 24 h ([1]; sodium salicylate 40% w/v aqueous solution): 125 ± 1.8 mg/mL | solubility thermodynamic at 24 h ([1]; urea 10% w/v aqueous solution): 0.85 ± 0.07 mg/mL | solubility thermodynamic at 24 h ([1]; urea 20% w/v aqueous solution): 1.06 ± 0.08 mg/mL | solubility thermodynamic at 24 h ([1]; urea 30% w/v aqueous solution): 1.13 ± 0.16 mg/mL | solubility thermodynamic at 24 h ([1]; urea 40% w/v aqueous solution): 1.36 ± 0.1 mg/mL | Solubility enhancement ratio ([1]; citric acid solution vs water (fits the 40% w/v value)): 2.192 | Solubility enhancement ratio ([1]; mannitol solution vs water (fits the 40% w/v value)): 2.085 | Solubility enhancement ratio ([1]; sodium benzoate solution vs water (fits the 40% w/v value)): 277.556 | Solubility enhancement ratio ([1]; sodium salicylate solution (40%) vs water, listed as Rosuvastatin calcium): 292.961 | Solubility enhancement ratio ([1]; sodium salicylate solution (40%) vs water, listed as rosuvastatin): 292.9 | Solubility enhancement ratio ([1]; urea solution vs water (fits the 40% w/v value)): 3.198 | Solubility enhancement ratio ([2]; SS : C 20 : 20 % w/v, vs water): 76.015 | Solubility enhancement ratio ([2]; SS : M 20 : 20 % w/v, vs water): 128.66 | Solubility enhancement ratio ([2]; SS : SB 5 : 35 % w/v, vs water): 189.78 | Solubility enhancement ratio ([2]; SS : SB 10 : 30 % w/v, vs water): 120.01 | Solubility enhancement ratio ([2]; SS : SB 15 : 25 % w/v, vs water): 389.37 | Solubility enhancement ratio ([2]; SS : SB 20 : 20 % w/v, vs water): 421.02 | Solubility enhancement ratio ([2]; SS : SB : C, each 13.333 % w/v, vs water): 112.005 | Solubility enhancement ratio ([2]; SS : SB : M, each 13.333 % w/v, vs water): 172.722 | Solubility enhancement ratio ([2]; SS : SB : U 10 : 15 : 15 % w/v, vs water): 200.265 | Solubility enhancement ratio ([2]; SS : SB : U 20 : 05 : 15 % w/v, vs water): 210.314 | Solubility enhancement ratio ([2]; SS : SB : U 20 : 10 : 10 % w/v, vs water): 235.414 | Solubility enhancement ratio ([2]; SS : SB : U 20 : 15 : 05 % w/v, vs water): 301.328 | Solubility enhancement ratio ([2]; SS : SB : U, each 13.333 % w/v, vs distilled water): 449.137 | Solubility enhancement ratio ([2]; SS : SB : U, each 13.333 % w/v, vs distilled water, listed as rosuvastatin): 449 | Solubility enhancement ratio ([2]; SS : U 20 : 20 % w/v, vs water): 181.65 | solubility at 24 h ([2]; SS : C 20 : 20 % w/v): 32.5 ± 0.52 mg/mL | solubility at 24 h ([2]; SS : M 20 : 20 % w/v): 55 ± 2.72 mg/mL | solubility at 24 h ([2]; SS : SB 5 : 35 % w/v): 81.1 ± 1.54 mg/mL | solubility at 24 h ([2]; SS : SB 10 : 30 % w/v): 51.3 ± 3.38 mg/mL | solubility at 24 h ([2]; SS : SB 20 : 20 % w/v): 180 ± 40.1 mg/mL | solubility at 24 h ([2]; SS : SB : U, each 13.333 % w/v): 192 ± 38.6 mg/mL | solubility at 24 h ([2]; SS : U 20 : 20 % w/v): 77.6 ± 2.31 mg/mL | solubility ([2]; SS : SB 15 : 25 % w/v): 166 ± 7.24 mg/mL | solubility ([2]; SS : SB : C, each 13.333 % w/v): 47.9 ± 1.43 mg/mL | solubility ([2]; SS : SB : M, each 13.333 % w/v): 73.8 ± 1.49 mg/mL | solubility ([2]; SS : SB : U 10 : 15 : 15 % w/v): 85.6 ± 1.74 mg/mL | solubility ([2]; SS : SB : U 20 : 05 : 15 % w/v): 89.9 ± 5.18 mg/mL | solubility ([2]; SS : SB : U 20 : 10 : 10 % w/v): 101 ± 12.7 mg/mL | solubility ([2]; SS : SB : U 20 : 15 : 05 % w/v): 129 ± 4.02 mg/mL | solubility ([2]; SS : SB : U, each 13.333 % w/v): 192 ± 38.6 mg/mL | solubility [3]: 0.427 ± 0.005 mg/mL | In vitro drug release [4]: 40.73 ± 4.44% and 40.73% | Biopharmaceutics classification system (BCS) class [5]: class II | Increase in solubility [6]: 55 folds | t1/2 [7]: 19 h | Oral bioavailability ([7]; oral): roughly 20%
